Measurements as given in PubChem BioAssay (NCI).
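Interpolation was linear, between the two tested concentrations surrounding the appropriate level; five concentrations were tested over 48 hours in 96-well plates. TGI: concentration producing complete growth inhibition.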

Assays:
Assay in all cases: inhibition of tumour cell growth, NCI panel, 48 h
[1] = system: U251 CNS
[2] = system: EKVX NSCLC
[3] = system: MCF7 breast
[4] = system: MOLT-4 leukemia
[5] = system: MDA-MB-231 breast
[6] = system: SNB-75 CNS
[7] = system: OVCAR-8 ovarian
[8] = system: 786-0 renal
[9] = system: NCI-H522 lung
[10] = system: NCI-H226 lung
[11] = system: SN12C renal
[12] = system: SK-MEL-5 melanoma

Structure (SMILES) | TGI [1] [µM] | TGI [2] [µM] | TGI [3] [µM] | TGI [4] [µM] | TGI [5] [µM] | TGI [6] [µM] | TGI [7] [µM] | TGI [8] [µM] | TGI [9] [µM] | TGI [10] [µM] | TGI [11] [µM] | TGI [12] [µM]
COc1ccc(S(=O)Cc2cc(OC)ccc2OC)cc1 (configuration not stated) | > 100 | > 100 | > 100 | > 100 | > 100 | > 100 | > 100 | > 100 | > 100 | > 100 | > 100 | –
O=[N+]([O-])/C(C(Cl)=C(Cl)Cl)=C(/Sc1ccccc1)N1CCOCC1 | 23.5 | 25.7 | 8.53 | 4.61 | 19.8 | 24.4 | 4.06 | 4.51 | 9.36 | 26.5 | 19.3 | 11.4
C/C=C/OC1C(C2COC(C)(C)O2)OC2OC(C)(C)OC21 (configuration not stated) | > 100 | > 100 | > 100 | > 100 | > 100 | > 100 | > 100 | > 100 | > 100 | – | – | > 100
COC(=O)CC1(O)C(C=C(C)C)C(C(=O)OC)C(=O)C(C(=O)OC)C1C(=O)OC (configuration not stated) | > 100 | > 100 | > 100 | > 100 | > 100 | – | > 100 | > 100 | > 100 | > 100 | > 100 | > 100
CCO[C@H]1C[C@@H](c2ccccc2)[C@]2(C)C[C@H](C(=O)OC)ON2O1 | > 100 | > 100 | > 100 | > 100 | > 100 | – | > 100 | > 100 | > 100 | > 100 | > 100 | > 100
CC(=O)NC1CCC(NC(=O)OC(C)(C)C)C(NC(=O)OC(C)(C)C)C1 (configuration not stated) | > 100 | – | > 100 | > 100 | > 100 | > 100 | > 100 | > 100 | > 100 | > 100 | > 100 | > 100
C/C(=N/NC(=S)N(Cc1ccccn1)Cc1ccccn1)c1cnccn1 | > 47.9 | 7.4 | > 100 | > 34.4 | 21.7 | 17.2 | – | 7.97 | 1.56 | 0.157 | 12.9 | > 37.9
CC(C)(C)OC(=O)/C=C/C(=O)O/C=C/[N+](=O)[O-] | > 100 | > 100 | > 100 | – | > 100 | > 100 | > 100 | > 100 | > 100 | > 100 | > 100 | > 100
FC(F)(F)C1(C(F)(F)F)OC(Cl)(Cl)C(Cl)(Cl)O1 | > 10 | > 10 | > 10 | – | > 10 | – | > 10 | > 10 | > 10 | > 10 | – | > 10
Cc1cc(S(N)(=O)=O)c(S/C(=N\Nc2ccc([N+](=O)[O-])cc2)c2ccc(Cl)cc2)cc1Cl | 5.41 | 28.3 | 4.59 | > 100 | 8.27 | 4.01 | – | – | 11.5 | 6.57 | 10.9 | 33.3
